Measured values from patent US12077503B2, “Substituted cyclic amides and their use as herbicides” (FMC CORPORATION, priority 2015, dated 2024).

What was measured:
Assay type in all cases: in vivo
[1] = system: redroot pigweed (Amaranthus retroflexus); assay: Test G Post-Emergence Protocol; conditions: Amaranthus retroflexus, post-emergence, 312 h, read-out: Pigweed, Redroot damage rating; for pest or weed control at 15.625 g/ha: 15.625 g ai/ha, evaluated after 13 days (100=total damage to plant; 0=no damage to plant); for pest or weed control at 62.5 g/ha: 62.5 g ai/ha; for pest or weed control at 62.5 g/ha / pest or weed control at 250 g/ha: evaluated after 13 days, 100=total damage to plant, 0=no damage to plant; for pest or weed control at 250 g/ha: 250 g ai/ha
In short: (§1)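 Sow in soil; grow 8 d (24/16 °C, 14 h light, 65% humidity); spray 15.625/62.5/250 g/ha in acetone:water 50:50 + 0.5% Tween 20; grow on, water twice daily; score damage 0–100 at 13 d.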

[2] = system: giant foxtail (Setaria faberi); assay: Test G Post-Emergence Protocol; conditions: Setaria faberi, post-emergence, 312 h, read-out: Foxtail, Giant damage rating; for pest or weed control at 15.625 g/ha: 15.625 g ai/ha, evaluated after 13 days (100=total damage to plant; 0=no damage to plant); for pest or weed control at 62.5 g/ha: 62.5 g ai/ha; for pest or weed control at 62.5 g/ha / pest or weed control at 250 g/ha: evaluated after 13 days, 100=total damage to plant, 0=no damage to plant; for pest or weed control at 250 g/ha: 250 g ai/ha
In short: as §1

[3] = system: barnyardgrass (Echinochloa crus-galli); assay: Test G Post-Emergence Protocol; conditions: Echinochloa crus-galli, post-emergence, 312 h, read-out: Barnyardgrass damage rating; for pest or weed control at 15.625 g/ha: 15.625 g ai/ha, evaluated after 13 days (100=total damage to plant; 0=no damage to plant); for pest or weed control at 62.5 g/ha: 62.5 g ai/ha; for pest or weed control at 62.5 g/ha / pest or weed control at 250 g/ha: evaluated after 13 days, 100=total damage to plant, 0=no damage to plant; for pest or weed control at 250 g/ha: 250 g ai/ha
In short: as §1

[4] = system: velvetleaf (Abutilon theophrasti); assay: Test G Post-Emergence Protocol; conditions: Abutilon theophrasti, post-emergence, 312 h, read-out: Velvetleaf damage rating; for pest or weed control at 15.625 g/ha: 15.625 g ai/ha, evaluated after 13 days (100=total damage to plant; 0=no damage to plant); for pest or weed control at 62.5 g/ha: 62.5 g ai/ha; for pest or weed control at 62.5 g/ha / pest or weed control at 250 g/ha: evaluated after 13 days, 100=total damage to plant, 0=no damage to plant; for pest or weed control at 250 g/ha: 250 g ai/ha
In short: as §1

corn (Zea mays) [5] = assay: Test G Post-Emergence Protocol; conditions: Zea mays, post-emergence, 312 h, read-out: Corn damage rating; for plant injury at 15.625 g/ha: 15.625 g ai/ha, evaluated after 13 days (100=total damage to plant; 0=no damage to plant); for plant injury at 62.5 g/ha: 62.5 g ai/ha; for plant injury at 62.5 g/ha / plant injury at 250 g/ha: evaluated after 13 days, 100=total damage to plant, 0=no damage to plant; for plant injury at 250 g/ha: 250 g ai/ha
In short: as §1

[6] = system: ivy-leaved morning glory (Ipomoea hederacea); assay: Test G Post-Emergence Protocol; conditions: Ipomoea, post-emergence, 312 h, read-out: Morningglory, Ivy-leaved damage rating; for pest or weed control at 15.625 g/ha: 15.625 g ai/ha, evaluated after 13 days (100=total damage to plant; 0=no damage to plant); for pest or weed control at 62.5 g/ha: 62.5 g ai/ha; for pest or weed control at 62.5 g/ha / pest or weed control at 250 g/ha: evaluated after 13 days, 100=total damage to plant, 0=no damage to plant; for pest or weed control at 250 g/ha: 250 g ai/ha
In short: as §1

[7] = system: redroot pigweed (Amaranthus retroflexus); assay: Test G Pre-Emergence Protocol; conditions: Amaranthus retroflexus, pre-emergence, 312 h, evaluated after 13 days; for pest or weed control at 15.625 g/ha: 15.625 g ai/ha; for pest or weed control at 15.625 g/ha / pest or weed control at 250 g/ha: read-out: Pigweed, Redroot damage rating (100=total damage to plant; 0=no damage to plant); for pest or weed control at 62.5 g/ha: 62.5 g ai/ha, 100=total damage to plant, 0=no damage to plant, read-out: Pigweed, Redroot damage rating; for pest or weed control at 250 g/ha: 250 g ai/ha
In short: (§2)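 Under a 24/16° C day/night regime with 14 h light and 65% humidity, sown pots were sprayed after one day with compound (15.625, 62.5 or 250 g/ha; 50:50 acetone/water, 0.5% Tween 20). Damage was assessed visually 13 days later, 0 to 100.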

[8] = system: giant foxtail (Setaria faberi); assay: Test G Pre-Emergence Protocol; conditions: Setaria faberi, pre-emergence, 312 h, evaluated after 13 days; for pest or weed control at 15.625 g/ha: 15.625 g ai/ha; for pest or weed control at 15.625 g/ha / pest or weed control at 250 g/ha: read-out: Foxtail, Giant damage rating (100=total damage to plant; 0=no damage to plant); for pest or weed control at 62.5 g/ha: 62.5 g ai/ha, 100=total damage to plant, 0=no damage to plant, read-out: Foxtail, Giant damage rating; for pest or weed control at 250 g/ha: 250 g ai/ha
In short: as §2

[9] = system: barnyardgrass (Echinochloa crus-galli); assay: Test G Pre-Emergence Protocol; conditions: Echinochloa crus-galli, pre-emergence, 312 h, evaluated after 13 days; for pest or weed control at 15.625 g/ha: 15.625 g ai/ha; for pest or weed control at 15.625 g/ha / pest or weed control at 250 g/ha: read-out: Barnyardgrass damage rating (100=total damage to plant; 0=no damage to plant); for pest or weed control at 62.5 g/ha: 62.5 g ai/ha, 100=total damage to plant, 0=no damage to plant, read-out: Barnyardgrass damage rating; for pest or weed control at 250 g/ha: 250 g ai/ha
In short: as §2

[10] = system: velvetleaf (Abutilon theophrasti); assay: Test G Pre-Emergence Protocol; conditions: Abutilon theophrasti, pre-emergence, 312 h, evaluated after 13 days; for pest or weed control at 15.625 g/ha: 15.625 g ai/ha; for pest or weed control at 15.625 g/ha / pest or weed control at 250 g/ha: read-out: Velvetleaf damage rating (100=total damage to plant; 0=no damage to plant); for pest or weed control at 62.5 g/ha: 62.5 g ai/ha, 100=total damage to plant, 0=no damage to plant, read-out: Velvetleaf damage rating; for pest or weed control at 250 g/ha: 250 g ai/ha
In short: as §2

corn (Zea mays) [11] = assay: Test G Pre-Emergence Protocol; conditions: Zea mays, pre-emergence, 312 h, evaluated after 13 days; for plant injury at 15.625 g/ha: 15.625 g ai/ha; for plant injury at 15.625 g/ha / plant injury at 250 g/ha: read-out: Corn damage rating (100=total damage to plant; 0=no damage to plant); for plant injury at 62.5 g/ha: 62.5 g ai/ha, 100=total damage to plant, 0=no damage to plant, read-out: Corn damage rating; for plant injury at 250 g/ha: 250 g ai/ha
In short: as §2

[12] = system: ivy-leaved morning glory (Ipomoea hederacea); assay: Test G Pre-Emergence Protocol; conditions: Ipomoea, pre-emergence, 312 h, evaluated after 13 days; for pest or weed control at 15.625 g/ha: 15.625 g ai/ha; for pest or weed control at 15.625 g/ha / pest or weed control at 250 g/ha: read-out: Morningglory, Ivy-leaved damage rating (100=total damage to plant; 0=no damage to plant); for pest or weed control at 62.5 g/ha: 62.5 g ai/ha, 100=total damage to plant, 0=no damage to plant, read-out: Morningglory, Ivy-leaved damage rating; for pest or weed control at 250 g/ha: 250 g ai/ha
In short: as §2

## CN1C[C@H](c2ccc(C(F)(F)F)cc2)[C@@H](C(=O)Nc2cnccc2S(C)(=O)=O)C1=O (racemic) [Compound 1746]
[1]
  pest or weed control at 15.625 g/ha: 0%
  pest or weed control at 62.5 g/ha: 20%
  pest or weed control at 250 g/ha: 20%
[2]
  pest or weed control at 15.625 g/ha: 0%
  pest or weed control at 62.5 g/ha: 10%
  pest or weed control at 250 g/ha: 70%
[3]
  pest or weed control at 15.625 g/ha: 0%
  pest or weed control at 62.5 g/ha: 0%
  pest or weed control at 250 g/ha: 40%
[4]
  pest or weed control at 15.625 g/ha: 0%
  pest or weed control at 62.5 g/ha: 0%
  pest or weed control at 250 g/ha: 10%
Corn (Zea mays) [5]
  plant injury at 15.625 g/ha: 0%
  plant injury at 62.5 g/ha: 0%
  plant injury at 250 g/ha: 10%
[6]
  pest or weed control at 15.625 g/ha: 0%
  pest or weed control at 62.5 g/ha: 10%
  pest or weed control at 250 g/ha: 60%
[7]
  pest or weed control at 15.625 g/ha: 0%
  pest or weed control at 62.5 g/ha: 0%
  pest or weed control at 250 g/ha: 20%
[8]
  pest or weed control at 15.625 g/ha: 0%
  pest or weed control at 62.5 g/ha: 20%
  pest or weed control at 250 g/ha: 70%
[9]
  pest or weed control at 15.625 g/ha: 0%
  pest or weed control at 62.5 g/ha: 0%
  pest or weed control at 250 g/ha: 50%
[10]
  pest or weed control at 15.625 g/ha: 0%
  pest or weed control at 62.5 g/ha: 0%
  pest or weed control at 250 g/ha: 10%
Corn (Zea mays) [11]
  plant injury at 15.625 g/ha: 0%
  plant injury at 62.5 g/ha: 0%
  plant injury at 250 g/ha: 0%
[12]
  pest or weed control at 15.625 g/ha: 0%
  pest or weed control at 62.5 g/ha: 0%
  pest or weed control at 250 g/ha: 10%

## CN1C[C@H](c2cccc(C(F)(F)F)c2)[C@@H](C(=O)Nc2cnccc2F)C1=O (racemic) [Compound 1745]
[1]
  pest or weed control at 15.625 g/ha: 0%
  pest or weed control at 62.5 g/ha: 0%
  pest or weed control at 250 g/ha: 20%
[2]
  pest or weed control at 15.625 g/ha: 10%
  pest or weed control at 62.5 g/ha: 60%
  pest or weed control at 250 g/ha: 70%
[3]
  pest or weed control at 15.625 g/ha: 10%
  pest or weed control at 62.5 g/ha: 70%
  pest or weed control at 250 g/ha: 80%
[4]
  pest or weed control at 15.625 g/ha: 0%
  pest or weed control at 62.5 g/ha: 0%
  pest or weed control at 250 g/ha: 0%
Corn (Zea mays) [5]
  plant injury at 15.625 g/ha: 0%
  plant injury at 62.5 g/ha: 0%
  plant injury at 250 g/ha: 0%
[6]
  pest or weed control at 15.625 g/ha: 0%
  pest or weed control at 62.5 g/ha: 30%
  pest or weed control at 250 g/ha: 40%
[7]
  pest or weed control at 15.625 g/ha: 0%
  pest or weed control at 62.5 g/ha: 0%
  pest or weed control at 250 g/ha: 20%
[8]
  pest or weed control at 15.625 g/ha: 0%
  pest or weed control at 62.5 g/ha: 10%
  pest or weed control at 250 g/ha: 50%
[9]
  pest or weed control at 15.625 g/ha: 0%
  pest or weed control at 62.5 g/ha: 0%
  pest or weed control at 250 g/ha: 60%
[10]
  pest or weed control at 15.625 g/ha: 0%
  pest or weed control at 62.5 g/ha: 0%
  pest or weed control at 250 g/ha: 0%
Corn (Zea mays) [11]
  plant injury at 15.625 g/ha: 0%
  plant injury at 62.5 g/ha: 0%
  plant injury at 250 g/ha: 0%
[12]
  pest or weed control at 15.625 g/ha: 0%
  pest or weed control at 62.5 g/ha: 0%
  pest or weed control at 250 g/ha: 10%

## CN1C[C@H](c2cc(C(C)(C)C)ncn2)[C@@H](C(=O)Nc2ccc(F)c(F)c2F)C1=O (racemic) [Compound 1668]
[1]
  pest or weed control at 15.625 g/ha: 0%
  pest or weed control at 62.5 g/ha: 0%
  pest or weed control at 250 g/ha: 0%
[2]
  pest or weed control at 15.625 g/ha: 0%
  pest or weed control at 62.5 g/ha: 0%
  pest or weed control at 250 g/ha: 10%
[3]
  pest or weed control at 15.625 g/ha: 0%
  pest or weed control at 62.5 g/ha: 0%
  pest or weed control at 250 g/ha: 0%
[4]
  pest or weed control at 15.625 g/ha: 0%
  pest or weed control at 62.5 g/ha: 0%
  pest or weed control at 250 g/ha: 0%
Corn (Zea mays) [5]
  plant injury at 15.625 g/ha: 0%
  plant injury at 62.5 g/ha: 0%
  plant injury at 250 g/ha: 0%
[6]
  pest or weed control at 15.625 g/ha: 0%
  pest or weed control at 62.5 g/ha: 0%
  pest or weed control at 250 g/ha: 0%
[7]
  pest or weed control at 15.625 g/ha: 0%
  pest or weed control at 62.5 g/ha: 0%
  pest or weed control at 250 g/ha: 0%
[8]
  pest or weed control at 15.625 g/ha: 0%
  pest or weed control at 62.5 g/ha: 0%
  pest or weed control at 250 g/ha: 20%
[9]
  pest or weed control at 15.625 g/ha: 0%
  pest or weed control at 62.5 g/ha: 0%
  pest or weed control at 250 g/ha: 20%
[10]
  pest or weed control at 15.625 g/ha: 0%
  pest or weed control at 62.5 g/ha: 0%
  pest or weed control at 250 g/ha: 0%
Corn (Zea mays) [11]
  plant injury at 15.625 g/ha: 0%
  plant injury at 62.5 g/ha: 0%
  plant injury at 250 g/ha: 0%
[12]
  pest or weed control at 15.625 g/ha: 0%
  pest or weed control at 62.5 g/ha: 0%
